Measured values reported in ChEMBL document CHEMBL2073923, “Reversal of anticancer drug resistance by macrolide antibiotics in vitro and in vivo” (Clin Exp Pharmacol Physiol, 2000).

Key:
Assay type in all cases: functional, cell-based
[1] = biological target: T1, ATP-dependent translocase ABCB1 (Mus musculus, UniProt P21447); test: TP_TRANSPORTER: inhibition of Vinblastine efflux (Vinblastine: 0.002 uM, YM17K: 100 uM) in P388/S and P388/ADR cells
[2] = biological target: T1, ATP-dependent translocase ABCB1; test: TP_TRANSPORTER: inhibition of Cyclosporin A efflux (CsA: 0.005 uM, YM17K: 100 uM) in P388/S and P388/ADR cells
[3] = biological target: T1, ATP-dependent translocase ABCB1; test: TP_TRANSPORTER: inhibition of Cyclosporin A efflux (CsA: 0.005 uM, Clarithromycin: 100 uM) in P388/S and P388/ADR cells
[4] = biological target: T1, ATP-dependent translocase ABCB1; test: TP_TRANSPORTER: inhibition of Vinblastine efflux (Vinblastine: 0.002 uM, Clarithromycin: 100 uM) in P388/S and P388/ADR cells
[5] = biological target: T1, ATP-dependent translocase ABCB1; test: TP_TRANSPORTER: inhibition of Cyclosporin A efflux (CsA: 0.005 uM, Josamycin: 100 uM) in P388/S and P388/ADR cells
[6] = biological target: T1, ATP-dependent translocase ABCB1; test: TP_TRANSPORTER: inhibition of Vinblastine efflux (Vinblastine: 0.002 uM, Josamycin: 100 uM) in P388/S and P388/ADR cells
[7] = biological target: T1, ATP-dependent translocase ABCB1; test: TP_TRANSPORTER: inhibition of Vinblastine efflux (Vinblastine: 0.002 uM, FK-506: 10 uM) in P388/S and P388/ADR cells
[8] = biological target: T1, ATP-dependent translocase ABCB1; test: TP_TRANSPORTER: intracellular accumulation in P388/S and P388/ADR cells

T1 sequence (P21447 whole entry): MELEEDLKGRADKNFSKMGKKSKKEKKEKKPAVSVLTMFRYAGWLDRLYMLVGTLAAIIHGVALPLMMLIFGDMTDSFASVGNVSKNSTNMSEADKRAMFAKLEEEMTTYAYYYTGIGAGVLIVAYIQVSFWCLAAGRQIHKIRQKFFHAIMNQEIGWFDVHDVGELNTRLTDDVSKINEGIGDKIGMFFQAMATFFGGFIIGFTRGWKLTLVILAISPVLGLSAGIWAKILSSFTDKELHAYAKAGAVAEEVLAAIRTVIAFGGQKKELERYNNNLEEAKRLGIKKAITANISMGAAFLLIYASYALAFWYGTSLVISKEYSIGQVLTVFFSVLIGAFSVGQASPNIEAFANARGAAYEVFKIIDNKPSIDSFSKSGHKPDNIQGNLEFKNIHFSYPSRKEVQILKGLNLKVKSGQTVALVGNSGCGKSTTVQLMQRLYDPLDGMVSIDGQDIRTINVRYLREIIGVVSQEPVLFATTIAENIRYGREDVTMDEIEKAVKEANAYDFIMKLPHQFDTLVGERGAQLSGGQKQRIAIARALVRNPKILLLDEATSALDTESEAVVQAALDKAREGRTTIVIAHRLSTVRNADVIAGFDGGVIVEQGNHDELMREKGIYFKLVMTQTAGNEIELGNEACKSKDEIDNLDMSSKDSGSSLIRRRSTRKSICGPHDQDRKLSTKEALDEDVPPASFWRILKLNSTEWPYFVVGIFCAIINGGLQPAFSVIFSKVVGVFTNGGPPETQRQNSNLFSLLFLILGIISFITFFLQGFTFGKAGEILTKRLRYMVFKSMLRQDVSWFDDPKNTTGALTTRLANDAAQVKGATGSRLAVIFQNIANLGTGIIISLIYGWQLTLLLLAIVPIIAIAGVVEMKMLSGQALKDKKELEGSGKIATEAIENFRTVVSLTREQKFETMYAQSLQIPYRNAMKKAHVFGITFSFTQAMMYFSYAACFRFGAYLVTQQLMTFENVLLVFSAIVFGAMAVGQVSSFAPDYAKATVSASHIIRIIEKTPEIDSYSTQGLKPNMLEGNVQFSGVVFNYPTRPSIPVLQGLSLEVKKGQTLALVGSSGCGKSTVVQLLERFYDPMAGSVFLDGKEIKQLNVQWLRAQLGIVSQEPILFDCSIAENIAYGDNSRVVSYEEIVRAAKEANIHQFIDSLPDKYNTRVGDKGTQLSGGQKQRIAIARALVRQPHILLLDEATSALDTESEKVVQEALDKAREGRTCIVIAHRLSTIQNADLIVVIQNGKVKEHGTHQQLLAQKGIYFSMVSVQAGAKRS

SMILES: CC[C@H]1OC(=O)CC[C@H](C)C(O[C@@H]2O[C@H](C)C[C@H](N(C)C)[C@H]2O)[C@@H](CC=O)C[C@@H](C)C(=O)/C=C/C(C)=C/[C@@H]1CO (stereo partly drawn)
- Activity [1]: inhibitor [(at a rough estimate) 200 % of control]
- Activity [2]: inhibitor [(at a rough estimate) 710 % of control]

SMILES: CC[C@H]1OC(=O)[C@H](C)[C@@H](O[C@H]2C[C@@](C)(OC)[C@@H](O)[C@H](C)O2)[C@H](C)[C@@H](O[C@@H]2O[C@H](C)C[C@H](N(C)C)[C@H]2O)[C@](C)(OC)C[C@@H](C)C(=O)[C@H](C)[C@@H](O)[C@]1(C)O [CLARITHROMYCIN]
- Activity [3]: inhibitor [(at a rough estimate) 820 % of control]
- Activity [4]: inhibitor [(at a rough estimate) 250 % of control]

SMILES: CO[C@@H]1[C@@H](O[C@@H]2O[C@H](C)[C@@H](O[C@H]3C[C@@](C)(O)[C@@H](OC(=O)CC(C)C)[C@H](C)O3)[C@H](N(C)C)[C@H]2O)[C@@H](CC=O)C[C@@H](C)[C@@H](O)/C=C/C=C/C[C@@H](C)OC(=O)C[C@H]1OC(C)=O [JOSAMYCIN]
- Activity [5]: inhibitor [(at a rough estimate) 710 % of control]
- Activity [6]: inhibitor [(at a rough estimate) 180 % of control]

SMILES: C=CC[C@@H]1/C=C(\C)C[C@H](C)C[C@H](OC)[C@H]2O[C@@](O)(C(=O)C(=O)N3CCCC[C@H]3C(=O)O[C@H](/C(C)=C/[C@@H]3CC[C@@H](O)[C@H](OC)C3)[C@H](C)[C@@H](O)CC1=O)[C@H](C)C[C@@H]2OC [TACROLIMUS ANHYDROUS]
- Activity [7]: inhibitor [(at a rough estimate) 230 % of control]

SMILES: CC[C@]1(O)C[C@@H]2CN(CCc3c([nH]c4ccccc34)[C@@](C(=O)OC)(c3cc4c(cc3OC)N(C)[C@H]3[C@@](O)(C(=O)OC)[C@H](OC(C)=O)[C@]5(CC)C=CCN6CC[C@]43[C@@H]65)C2)C1 [VINBLASTINE]
- Activity [8]: substrate [+]
